These results are taken from ChEMBL document CHEMBL1932937, “Inhibition of noroviruses by piperazine derivatives” (Bioorg Med Chem Lett, 2012).

For one series, the system named is Norovirus. Nature of the series: Antiviral activity against Norovirus infected in human HG23 cells assessed as inhibition of viral replication after 24 hrs. Format: functional. To be noted: HG23, 24 h, read-out: ED50 (the source's name).
With `O=C(c1cn(Cc2cccc(F)c2)nn1)N1CCN(Cc2ccccc2)CC1`, the EC50 is > 20 µM.

Consider `COc1ccc(Cn2cc(C(=O)N3CCN(Cc4ccccc4)CC3)nn2)cc1`, for which the EC50 was determined as 8.5 µM.

With `O=C(N1CCOCC1)N1CCN(Cc2ccccc2)CC1`, the EC50 was > 20 µM.

Turning to `O=C(c1cn(Cc2ccc(F)cc2)nn1)N1CCN(Cc2ccccc2)CC1`, the EC50 is > 20 µM.

As to `CC(C)Oc1ccc(C(=O)N2CCN(Cc3cccc(Oc4ccccc4)c3)CC2)cc1`, the EC50 was > 20 µM.

Regarding `N#Cc1ccc(S(=O)(=O)N2CCN(Cc3cccc(Oc4ccccc4)c3)CC2)cc1`, the EC50 turned out to be 12.5 µM.

Turning to `c1ccc(Oc2cccc(CN3CCN(Cc4cccc(Oc5ccccc5)c4)CC3)c2)cc1`, the EC50 worked out at 5.6 µM.

In the case of `O=C(Cc1ccc(Cl)cc1)N1CCN(Cc2cccc(Oc3ccccc3)c2)CC1`, the EC50 was > 20 µM.

As for `CC(C)Oc1ccc(CN2CCN(Cc3cccc(Oc4ccccc4)c3)CC2)cc1`, the EC50 turned out to be 8.5 µM.

With `O=C(c1cccc(Oc2ccccc2)c1)N1CCN(Cc2cccc(Oc3ccccc3)c2)CC1`, the EC50 came out at 5.5 µM.

With `O=C(c1ccccc1Oc1ccccc1)N1CCN(Cc2ccccc2)CC1`, the EC50 is 8.2 µM.

As for `O=C(c1cn(CSc2ccccc2)nn1)N1CCN(Cc2ccccc2)CC1`, the EC50 was > 20 µM.

Regarding `Oc1cccc(CN2CCN(Cc3cccc(Oc4ccccc4)c3)CC2)c1`, the EC50 was > 20 µM.

Consider `O=C(c1ccc(O)cc1)N1CCN(Cc2cccc(Oc3ccccc3)c2)CC1`, for which the EC50 is > 20 µM.

As to `CCCOc1ccc(C(=O)N2CCN(Cc3ccccc3)CC2)cc1`, the EC50 was 7.8 µM.

As to `O=C(c1ccc(Oc2ccccc2)cc1)N1CCN(Cc2ccccc2)CC1`, the EC50 is > 20 µM.

For the molecule `O=C(c1cccc(F)c1)N1CCN(Cc2ccccc2)CC1`, the EC50 was > 20 µM.

Regarding `O=C1CC(C(=O)N2CCN(Cc3ccccc3)CC2)CN1CCc1ccccc1` (stereo not drawn), the EC50 was > 20 µM.

For `COc1ccc(C(=O)N2CCN(Cc3cccc(Oc4ccccc4)c3)CC2)cc1`, the EC50 is 4.5 µM.

Take `O=C(c1ccco1)N1CCN(Cc2ccccc2)CC1`: the EC50 was > 20 µM.

With `O=C(c1cccc(Oc2ccccc2)c1)N1CCN(Cc2ccccc2)CC1`, the EC50 was 2.8 µM.

Regarding `CCCCS(=O)(=O)N1CCN(Cc2cccc(Oc3ccccc3)c2)CC1`, the EC50 is 6.7 µM.

Take `COC(=O)c1ccc(Cn2cc(C(=O)N3CCN(Cc4ccccc4)CC3)nn2)cc1`: the EC50 is > 20 µM.

As to `COc1ccc(CC(=O)N2CCN(Cc3ccccc3)CC2)cc1`, the EC50 is > 20 µM.

`O=C1CC(C(=O)N2CCN(Cc3ccccc3)CC2)CN1Cc1ccco1` (stereo not drawn): the EC50 was > 20 µM.

For `COc1ccc(CN2CC(C(=O)N3CCN(Cc4ccccc4)CC3)CC2=O)cc1` (stereo not drawn), the EC50 came out at 7.2 µM.

As for `O=C(c1ccc(Oc2ccccc2)cc1)N1CCN(Cc2cccc(Oc3ccccc3)c2)CC1`, the EC50 turned out to be 3.8 µM.

Take `O=C1CC(C(=O)N2CCN(Cc3ccccc3)CC2)CN1Cc1ccccc1` (stereo not drawn): the EC50 is > 20 µM.

In the case of `N#Cc1ccc(C(=O)N2CCN(Cc3cccc(Oc4ccccc4)c3)CC2)cc1`, the EC50 is > 20 µM.

As to `O=C(c1cccc(Cl)c1)N1CCN(Cc2ccccc2)CC1`, the EC50 was > 20 µM.

Tested on in the next series: not listed separately
Nature of the series: Cytotoxicity against human HG23 cells after 48 hrs. Type of series: cell-based. As to conditions: read-out: TD50.
With `COc1ccc(Cn2cc(C(=O)N3CCN(Cc4ccccc4)CC3)nn2)cc1`, the CC50 at 48 h came out at 62.5 µM.

On to `N#Cc1ccc(S(=O)(=O)N2CCN(Cc3cccc(Oc4ccccc4)c3)CC2)cc1`, for which the CC50 at 48 h turned out to be 119 µM.

Take `c1ccc(Oc2cccc(CN3CCN(Cc4cccc(Oc5ccccc5)c4)CC3)c2)cc1`: the CC50 at 48 h amounted to 75.4 µM.

Take `CC(C)Oc1ccc(CN2CCN(Cc3cccc(Oc4ccccc4)c3)CC2)cc1`: the CC50 at 48 h was determined as 31.5 µM.

Consider `O=C(c1cccc(Oc2ccccc2)c1)N1CCN(Cc2cccc(Oc3ccccc3)c2)CC1`, for which the CC50 at 48 h was determined as 15.6 µM.

`O=C(c1ccccc1Oc1ccccc1)N1CCN(Cc2ccccc2)CC1`: the CC50 at 48 h came out at 18.5 µM.

Consider `CCCOc1ccc(C(=O)N2CCN(Cc3ccccc3)CC2)cc1`, for which the CC50 at 48 h was determined as 95.3 µM.

For `COc1ccc(C(=O)N2CCN(Cc3cccc(Oc4ccccc4)c3)CC2)cc1`, the CC50 at 48 h came to 25.4 µM.

Take `O=C(c1cccc(Oc2ccccc2)c1)N1CCN(Cc2ccccc2)CC1`: the CC50 at 48 h was found to be 11.4 µM.

`CCCCS(=O)(=O)N1CCN(Cc2cccc(Oc3ccccc3)c2)CC1`: the CC50 at 48 h stood at 121 µM.

Regarding `COc1ccc(CN2CC(C(=O)N3CCN(Cc4ccccc4)CC3)CC2=O)cc1` (stereo not drawn), the CC50 at 48 h came to 155 µM.

For the molecule `O=C(c1ccc(Oc2ccccc2)cc1)N1CCN(Cc2cccc(Oc3ccccc3)c2)CC1`, the CC50 at 48 h was determined as 23.5 µM.

Tested on in another series: not listed separately
Nature of the series: Therapeutic index, ratio of TD50 for HG23 cells to ED50 for Norovirus infected in human HG23 cells. Format: cell-based. As to conditions: read-out: Ratio TD50/ED50.
For `CCCCS(=O)(=O)N1CCN(Cc2cccc(Oc3ccccc3)c2)CC1`, the selectivity ratio is 18.
